Results taken from publication PMC11271967, “An inhibitory mechanism of AasS, an exogenous fatty acid scavenger: Implications for re-sensitization of FAS II antimicrobials” (PLOS Pathogens, 2024).

Assays:
AasS [1] = biological target: T1, AasS (Vibrio harveyi, UniProt Q00IB3); test: Microscale thermophoresis (MST), wild-type AasS; type: binding; details: MST
Procedure: (§1) To validate poor binding of AasS(D411A) to C10 fatty acyl adenylate observed in our ITC assays, the relatively-more sensitive approach of microscale thermophoresis (MST) was additionally applied here as Jerabek-Willemsen et al. described with minor alteration. Using the Protein Labeling Kit (Protein Labeling Kit RED-NHS 2nd Generation, Nano Temper Technology), both the wild-type AasS and its D411A mutant were fluorescently labelled in the MST buffer (150 mM NaCl, 25 mM Tris-HCl, 3 mM MgCl2, 0.05% Tween-20, pH 8.0). The ligand C10-AMP used in MST assays was prepared by an equal mixture of C10 and ATP. In general, an NT.115 Monolith instrument (Nano Temper Technology, Germany) was integrated, of which the routine parameters included a RED/LED (20%) excitation power along with 60% laser power for excitation. Then, the protein samples were siphoned into MST Premium Coated capillaries for the determination of binding affinity at room temperature. The final concentrations of different AasS samples were 40 nM for WT, and 180 nM for D411A, respectively. The mixture of C10/ATP was diluted in a gradient (from 0.15 nM to 5.0 μM). Three independent MST experiments were conducted here. The dissociation constants (Kd) were calculated using the software MO. Affinity Analysis v2.3. Of note, this was largely dependent on the KD model with a 1:1 stoichiometry per binding partner.

AasS(D411A) = test: Microscale thermophoresis (MST), AasS(D411A) mutant; type: binding, Vibrio harveyi; details: MST
Procedure: as §1

AasS [2] = biological target: T1, AasS; test: Isothermal titration calorimetry (ITC), wild-type AasS; type: binding; details: AasS ~40 μM saturated with ATP 120 μM
Procedure: The assays of Isothermal titration calorimetry (ITC) were conducted to address the stoichiometry of AasS binding to its C10-AMS inhibitor and C10-AMP intermediate. Since both malic acid and pimelic acid are not substrates for AasS, the two dicarboxylic acids were assumed as negative controls in our ITC analysis. Using a micro-calorimeter (MicroCal PEAQ-ITC) as recently described for E-C7 with little change, totally 18 titrations (2 μl each at an internal of 2.5 min) proceeded in the cell at room temperature. Prior to the titration, AasS protein (~40 μM) was saturated with its ATP cofactor (120 μM) in the cell, and C10-AMS inhibitor (or C10) was kept at 600 μM in the syringe. The titration buffer was composed of 150 mM NaCl, 25 mM Tris-HCl (pH8.0), 2 mM DTT, and 3 mM MgCl2. One set of site model by the MicroCal PEAQ-ITC software enabled plotting the titration curves. Next, the stoichiometry (N) and dissociation constant (Kd) were calculated. It was given as an average ± standard deviation (SD) from three independent trials.

AasS [3] = biological target: T1, AasS; test: Michaelis-Menten curves of AasS reaction with C10-AMS supplemented; type: biochemical
Procedure: To ascertain this hypothesis, we set up three combinations of AasS reaction with the varied order of C10-AMS inhibitor added in relative to C10 substrate. Namely, these included (i) addition of C10-AMS after C10 pre-incubation (S1B Fig), (ii) simultaneous addition of C10-AMS and C10 (S1C Fig), and (iii) supplementation of C10-AMS prior to C10 (S1D Fig). […] Next, we generated Michaelis-Menten curves of AasS enzyme to evaluate the inhibitory pattern of C10-AMS against ATP cofactor and C10 acyl substrate (S2 Fig).
Supplementary file ppat.1012376.s004.tif: S2 Fig Use of Michaelis-Menten curves to evaluate inhibition mode of AasS by the C10-AMS molecule. Michaelis-Menten curves of AasS reaction for the ATP cofactor (A) and C10 acyl substrate (C), on the condition of C10-AMS inhibitor supplemented at varied concentrations. C10-AMS was added at different level (ranging from 0, 125, 250, to 500 nM). Based on the dogma of Michaelis-Menten equation, a number of crosspoints of two vertically-intersecting dashed-lines (indicated with arrows) were given to determine the values of Km and Vmax. Of note, the coordinate (x,y) of the resultant crosspoint denotes the number (Km, Vmax /2). The values of Km and Vmax for AasS inhibited by C10-AMS in relative to ATP cofactor (B) and C10 substrate (D). […] Designations: Km, Michaelis constant; Vmax, Maximum velocity. (TIF)

[4] = increasing C10-AMS while varying ATP

T1 sequence (Q00IB3 entry or part of it): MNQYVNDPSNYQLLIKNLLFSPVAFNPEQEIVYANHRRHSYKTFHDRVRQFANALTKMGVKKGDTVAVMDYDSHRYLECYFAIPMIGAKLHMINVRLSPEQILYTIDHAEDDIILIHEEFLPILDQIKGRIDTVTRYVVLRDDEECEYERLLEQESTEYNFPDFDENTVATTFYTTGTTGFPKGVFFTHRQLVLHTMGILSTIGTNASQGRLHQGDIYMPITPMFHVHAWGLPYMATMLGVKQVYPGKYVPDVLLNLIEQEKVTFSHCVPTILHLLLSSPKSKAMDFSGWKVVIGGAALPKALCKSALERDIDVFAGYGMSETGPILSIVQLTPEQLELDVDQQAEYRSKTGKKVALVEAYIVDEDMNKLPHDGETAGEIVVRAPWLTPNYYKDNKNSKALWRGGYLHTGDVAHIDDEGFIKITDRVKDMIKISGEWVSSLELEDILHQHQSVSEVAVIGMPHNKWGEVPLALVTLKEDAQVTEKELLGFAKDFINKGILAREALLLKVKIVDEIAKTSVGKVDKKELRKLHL

Compound: CCCCCCCCCC(=O)NS(=O)(=O)OC[C@H]1O[C@@H](n2cnc3c(N)ncnc32)[C@H](O)[C@@H]1O [C10-AMS]
- Average (DeltaFNorm), AasS(WT) (AasS [1]; Dose 1.52588e-10): 0.4239
- Average (DeltaFNorm), AasS(WT) (AasS [1]; Dose 3.05176e-10): 1.688
- Average (DeltaFNorm), AasS(WT) (AasS [1]; Dose 6.10352e-10): 0.6276
- Average (DeltaFNorm), AasS(WT) (AasS [1]; Dose 1.2207e-9): -0.2133
- Average (DeltaFNorm), AasS(WT) (AasS [1]; Dose 2.44141e-9): -0.7539
- Average (DeltaFNorm), AasS(WT) (AasS [1]; Dose 4.88281e-9): -0.9203
- Average (DeltaFNorm), AasS(WT) (AasS [1]; Dose 9.76563e-9): -2.469
- Average (DeltaFNorm), AasS(WT) (AasS [1]; Dose 1.95313e-8): -0.4913
- Average (DeltaFNorm), AasS(WT) (AasS [1]; Dose 3.90625e-8): -0.5142
- Average (DeltaFNorm), AasS(WT) (AasS [1]; Dose 7.8125e-8): -1.198
- Average (DeltaFNorm), AasS(WT) (AasS [1]; Dose 1.5625e-7): -2.398
- Average (DeltaFNorm), AasS(WT) (AasS [1]; Dose 3.125e-7): -4.638
- Average (DeltaFNorm), AasS(WT) (AasS [1]; Dose 6.25e-7): -6.534
- Average (DeltaFNorm), AasS(WT) (AasS [1]; Dose 1.25e-6): -7.36
- Average (DeltaFNorm), AasS(WT) (AasS [1]; Dose 2.5e-6): -8.128
- Average (DeltaFNorm), AasS(WT) (AasS [1]; Dose 5e-6): -7.529
- Average (DeltaFNorm), AasS(D411A) (AasS(D411A); Dose 1.52588e-10): 4.014
- Average (DeltaFNorm), AasS(D411A) (AasS(D411A); Dose 3.05176e-10): 2.739
- Average (DeltaFNorm), AasS(D411A) (AasS(D411A); Dose 6.10352e-10): 3.15
- Average (DeltaFNorm), AasS(D411A) (AasS(D411A); Dose 1.2207e-9): 3.03
- Average (DeltaFNorm), AasS(D411A) (AasS(D411A); Dose 2.44141e-9): -1.436
- Average (DeltaFNorm), AasS(D411A) (AasS(D411A); Dose 4.88281e-9): 1.165
- Average (DeltaFNorm), AasS(D411A) (AasS(D411A); Dose 9.76563e-9): 0.1826
- Average (DeltaFNorm), AasS(D411A) (AasS(D411A); Dose 1.95313e-8): -0.6893
- Average (DeltaFNorm), AasS(D411A) (AasS(D411A); Dose 3.90625e-8): 2.194
- Average (DeltaFNorm), AasS(D411A) (AasS(D411A); Dose 7.8125e-8): -2.669
- Average (DeltaFNorm), AasS(D411A) (AasS(D411A); Dose 1.5625e-7): -0.9022
- Average (DeltaFNorm), AasS(D411A) (AasS(D411A); Dose 3.125e-7): -3.911
- Average (DeltaFNorm), AasS(D411A) (AasS(D411A); Dose 1.25e-6): -3.293
- Average (DeltaFNorm), AasS(D411A) (AasS(D411A); Dose 2.5e-6): -1.334
- Average (DeltaFNorm), AasS(D411A) (AasS(D411A); Dose 5e-6): -2.2407
- stoichiometry (n) (AasS [2]): 0.97±0.16
- Kd (AasS [2]; ligand 600 μM in syringe, room temperature, read-out: dissociation constant (Kd)): 14.1 ± 3.82 nM
- AasS reaction rate, Michaelis-Menten curve for ATP, Average (AasS [3]; 125 nM C10-AMS, ATP 0.125 (unit not given)): 0.1701
- AasS reaction rate, Michaelis-Menten curve for ATP, Average (AasS [3]; 125 nM C10-AMS, ATP 0.25): 0.2829
- AasS reaction rate, Michaelis-Menten curve for ATP, Average (AasS [3]; 125 nM C10-AMS, ATP 0.5): 0.452
- AasS reaction rate, Michaelis-Menten curve for ATP, Average (AasS [3]; 125 nM C10-AMS, ATP 1): 0.6373
- AasS reaction rate, Michaelis-Menten curve for ATP, Average (AasS [3]; 125 nM C10-AMS, ATP 2): 0.8268
- AasS reaction rate, Michaelis-Menten curve for C10 acyl substrate, Average (AasS [3]; 125 nM C10-AMS, C10 5 (unit not given)): 0.6857
- AasS reaction rate, Michaelis-Menten curve for C10 acyl substrate, Average (AasS [3]; 125 nM C10-AMS, C10 10): 0.7781
- AasS reaction rate, Michaelis-Menten curve for C10 acyl substrate, Average (AasS [3]; 125 nM C10-AMS, C10 20): 0.8956
- AasS reaction rate, Michaelis-Menten curve for C10 acyl substrate, Average (AasS [3]; 125 nM C10-AMS, C10 40): 0.924
- AasS reaction rate, Michaelis-Menten curve for ATP, Average (AasS [3]; 250 nM C10-AMS, ATP 0.125 (unit not given)): 0.1042
- AasS reaction rate, Michaelis-Menten curve for ATP, Average (AasS [3]; 250 nM C10-AMS, ATP 0.25): 0.1505
- AasS reaction rate, Michaelis-Menten curve for ATP, Average (AasS [3]; 250 nM C10-AMS, ATP 0.5): 0.2695
- AasS reaction rate, Michaelis-Menten curve for ATP, Average (AasS [3]; 250 nM C10-AMS, ATP 1): 0.5022
- AasS reaction rate, Michaelis-Menten curve for ATP, Average (AasS [3]; 250 nM C10-AMS, ATP 2): 0.6244
- AasS reaction rate, Michaelis-Menten curve for C10 acyl substrate, Average (AasS [3]; 250 nM C10-AMS, C10 5 (unit not given)): 0.3359
- AasS reaction rate, Michaelis-Menten curve for C10 acyl substrate, Average (AasS [3]; 250 nM C10-AMS, C10 10): 0.4164
- AasS reaction rate, Michaelis-Menten curve for C10 acyl substrate, Average (AasS [3]; 250 nM C10-AMS, C10 20): 0.4772
- AasS reaction rate, Michaelis-Menten curve for C10 acyl substrate, Average (AasS [3]; 250 nM C10-AMS, C10 40): 0.4877
- AasS reaction rate, Michaelis-Menten curve for ATP, Average (AasS [3]; 500 nM C10-AMS, ATP 0.125 (unit not given)): 0.0721
- AasS reaction rate, Michaelis-Menten curve for ATP, Average (AasS [3]; 500 nM C10-AMS, ATP 0.25): 0.08914
- AasS reaction rate, Michaelis-Menten curve for ATP, Average (AasS [3]; 500 nM C10-AMS, ATP 0.5): 0.1634
- AasS reaction rate, Michaelis-Menten curve for ATP, Average (AasS [3]; 500 nM C10-AMS, ATP 1): 0.2728
- AasS reaction rate, Michaelis-Menten curve for ATP, Average (AasS [3]; 500 nM C10-AMS, ATP 2): 0.3695
- AasS reaction rate, Michaelis-Menten curve for C10 acyl substrate, Average (AasS [3]; 500 nM C10-AMS, C10 5 (unit not given)): 0.2278
- AasS reaction rate, Michaelis-Menten curve for C10 acyl substrate, Average (AasS [3]; 500 nM C10-AMS, C10 10): 0.2903
- AasS reaction rate, Michaelis-Menten curve for C10 acyl substrate, Average (AasS [3]; 500 nM C10-AMS, C10 20): 0.3259
- AasS reaction rate, Michaelis-Menten curve for C10 acyl substrate, Average (AasS [3]; 500 nM C10-AMS, C10 40): 0.3858
- change of Michaelis constant (Km) of AasS (AasS [3]; [4]): increase
- change of maximum velocity (Vmax) of AasS (AasS [3]; [4]): declined
- mode of inhibition against ATP ligand (AasS [3]; varying ATP, C10-AMS 0-500 nM): mixed inhibition
- inhibitory pattern for the C10 acyl substrate (AasS [3]; varying C10, C10-AMS 0-500 nM): mixed type of inhibition
